This note sets out measurements from US20240325406A1, “ANTIBACTERIAL COMPOSITIONS” (Wockhardt Limited, priority 2016, published 2024).

Experiment in all cases: Quantitative drug diffusion (disc) assay per CLSI, zone of inhibition
Common to all, as to assay type: cell-based
Set-up in all cases: key to CLSI susceptibility interpretation: (R): Resistant;; (I): Intermediate;; (S): Sensitive (Interpretation as per CLSI recommendations, 2010)

One assay concerns E. coli 7MP. The text has this:
(§1) Antibacterial activity of cefepime combination with tazobactam against various bacterial strains, including those bacteria that are known to product one or more beta-lactamase, was investigated in quantitative drug diffusion assay performed as per CLSI recommendations (Clinical and Laboratory Standards Institute (CLSI), performance Standards for Antimicrobial Susceptibility Testing, 20th Informational Supplement, M 100-S20, Volume 30, No. 1, 2010).
(§2) In a typical study, overnight grown bacterial cultures after appropriate dilution were seed inoculated in the molten, cooled agar media and plates poured. Antibacterial agents containing 6 mm diameter discs were placed on the top of the agar surface. Zone of inhibition based observation was performed after 16 to 18 hours of incubation at 35±2° C. in ambient air. These assays are routinely used in determining possibility of treating a particular infection using given antibacterial agent or a composition. In general, zone inhibition values in the sensitive(S) range indicate that the strain is susceptible to that antibacterial agent or composition. It is generally assumed that the antibacterial agent or the combination under consideration would not be effective in treating the infection, if the zone inhibition values are in the resistant (R) range.

The subject of a further assay is E. coli B-89.
Text: as §1, §2

The test system of a further assay is E. coli M-138.
Text: as §1, §2

In a further assay the test system is E. coli S-112.
Text: as §1, §2

For a further assay, the system named is E. coli M50.
Text: as §1, §2

A further assay relates to E. coli B-123.
Text: as §1, §2

[1] abbreviates: 6 mm discs, 16 to 18 hours at 35±2° C., tazobactam 10 mcg in the combination.
Where [2] appears, read: interpretation of zone of inhibition.

For the molecule `CO/N=C(\C(=O)N[C@@H]1C(=O)N2C(C(=O)[O-])=C(C[N+]3(C)CCCC3)CS[C@H]12)c1csc(N)n1` [Cefepime, cefepime], the “Zone of Inhibition” value with E. coli 7MP (setting [1]) is 16 mm; in the assay on E. coli B-89 (setting [1]), 8 mm; with E. coli M-138 (setting [1]), “Nil”; in the assay with E. coli S-112 (setting [1]), 17 mm; with E. coli M50 (setting [1]), 7.5 mm; in the assay with E. coli B-123 (setting [1]) it was 8 mm. Also, the CLSI susceptibility interpretation result in the assay on E. coli 7MP (setting [2]) is recorded as “I”; in the assay on E. coli B-89 (setting [2]) it was “R”; in the assay on E. coli M-138 (setting [2]), “R”; in the assay on E. coli S-112 (setting [2]), “I”; in the assay on E. coli M50 (setting [2]) it was “R”; with E. coli B-123 (setting [2]), “R”.
